Results published in patent publication US7850970B2, “Inhibitors of serine protease activity and their use in methods and compositions for treatment of bacterial infections” (priority 2003, dated 2010).
Values joined by “and” are separate entries in the source; they are usually repeats but may differ in a detail not shown here. Identical values can stand only once. Residues, ends and D or L forms follow the SMILES beside them. *: point of attachment. CH2Cl = ClC*

How the values were obtained:
[1] = system: MAC (strain Mycobacterium avium 9141); test: MAC infection of human monocyte-derived macrophages, direct observation and counting of infected cells; type: cell-based; details: AAT 5.0 mg/ml-exposed MDM, control MDM (no AAT) 17%
[2] = system: TB (strain H37RV); type: cell-based, m. tuberculosis
[3] = system: TB (strain H37RV); type: cell-based, m. tuberculosis; details: AAT 5.0 mg/ml-exposed MDM; control MDM (no AAT) 20% and 17%
[4] = system: interleukin-1 beta; test: Stimulated interleukin-1 beta production in whole human blood; type: cell-based; details: whole human blood diluted 1:4, heat-killed Staphylococcus epidermidis 1:1000, 24 hrs, all concentrations tested, FIG. 5
Method: Design: Venipuncture was performed on 3 healthy volunteers using a 21-gauge needle, and the venous blood was aspirated into a heparinized tube. Blood was then aliquoted into 6 milliliter polypropylene tubes and diluted 1:4 with sterile RPMI tissue culture medium alone (Control), diluted 1:4 in medium containing heat-killed Staphylococcus epidermidis at a final concentration of 1:1000 as a stimulus (Staph), or into tubes containing Staphylococcus epidermidis and alpha-1-antitrypsin (AAT, Aralast® from Baxter). All cultures were then incubated ×24 hrs at 37° C./5% CO2). Following incubation, the samples were centrifuged ×1,500 g, and the supernatants collected. Supernatants were assayed for interleukin-1 beta concentration using a validated electrochemiluminescence apparatus that quantifies cytokine proteins.

[5] = system: MAC (strain Mycobacterium avium 9141); test: MAC infection of human monocyte-derived macrophages, colony counts; type: cell-based; details: FIG. 1

Row | Compound | percent of cells infected [1] [%] | TB counts per ml ([2]; AAT-exposed MDM cultures, control MDM cultures 1.6×10^5 per ml) | inhibitory effect on cell-associated TB counts ([2]; AAT-exposed versus control MDM cultures) [%] | percent of cells infected with m. tuberculosis [3] | Staph-stimulated interleukin-1 beta production [4] | inhibition of infection of MDM with MAC (mean effect) ([5]; 4 separate experiments) | effect on MAC infection of MDM [5]
1 | α1-antitrypsin [AAT] | 10 | 0.57×10^5 per ml | 64 | 4% and 6% | significantly inhibited | approximately 55% | 
2 | CC(C)[C@H](NC(=O)[C@@H]1CCCN1C(=O)[C@H](C)NC(=O)[C@H](C)N)C(=O)CCl [AAT mimic, ala-ala-pro-val-chloromethyl ketone, reference compound] (H-AAPV-CH2Cl) |  |  |  |  |  |  | confirm the AAT data
